# Key:
# [1] = test system: SARS-CoV-2-GHB-03021/2020; conditions: hamster, in vivo
# SARS-CoV-2 [2] = conditions: cited from earlier work
# human cathepsin L = human cathepsin L (Homo sapiens, UniProt P07711); experiment: human cathepsin L biochemical assay; conditions: 3CLpro versus cathepsin L
# SARS-CoV-2 [3] = conditions: monotherapy; cited from earlier work
# 3CLpro = conditions: cited from earlier work
# SARS-CoV-2 [4] = conditions: cited from earlier work; remark: listed apart in the source
# [5] = test system: human alpha-coronavirus 229E; experiment: organism not typed; format: cell-based; conditions: Huh-7, 96 h, read-out: α-CoV 229E (Huh-7) EC50
# [6] = Cytotoxicity in HeLa cells; format: cell-based; conditions: human
# Chain of human cathepsin L (P07711 114-333): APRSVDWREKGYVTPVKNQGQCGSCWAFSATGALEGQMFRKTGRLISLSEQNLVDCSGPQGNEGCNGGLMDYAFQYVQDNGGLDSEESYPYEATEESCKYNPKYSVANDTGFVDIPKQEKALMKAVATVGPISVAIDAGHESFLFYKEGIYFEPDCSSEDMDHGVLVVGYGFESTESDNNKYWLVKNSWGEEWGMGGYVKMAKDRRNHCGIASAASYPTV
structure (smiles),measurement,setting,value
CC(C)C(=O)OC[C@H]1O[C@@H](n2ccc(NO)nc2=O)[C@H](O)[C@@H]1O [EIDD-2801],reduction in viral RNA copies per mg of lung tissue,[1],2.0 log10
same,reduction of infectious virus titers in the lungs,[1],4.1 log10 TCID50 per mg
CC(C)C[C@H](NC(=O)OCc1ccccc1)C(=O)N[C@@H](CC1CCNC1=O)C(O)S(=O)(=O)[O-].[Na+] (stereo partly shown) [GC-376],antiviral activity in the K18-hACE2 SARS-CoV-2 infection mouse model,SARS-CoV-2 [2],modest antiviral activity
same,selectivity against human cathepsin L in comparison with ALG-097111,human cathepsin L,significantly less selective
same,antiviral effect in a mouse model of SARS-CoV-2 infection,SARS-CoV-2 [3],failed to show a clear antiviral effect
CN1CCN(C(=O)N[C@@H](Cc2ccccc2)C(=O)N[C@H](/C=C/S(=O)(=O)c2ccccc2)CCc2ccccc2)CC1 [K117777],inhibitory effect on the 3CLpro,3CLpro,lacks an inhibitory effect
same,antiviral effect when TMPRSS2 was expressed,SARS-CoV-2 [4]; A549-ACE2 expressing TMPRSS2,abolished
same,inhibition of SARS-CoV-2 in cells,"SARS-CoV-2 [4]; VeroE6, A549-ACE2 and HeLa-ACE2",potent inhibition
CCC(CC)COC(=O)[C@H](C)N[P@](=O)(OC[C@H]1O[C@@](C#N)(c2ccc3c(N)ncnn23)[C@H](O)[C@@H]1O)Oc1ccccc1 [Remdesivir],EC50,[5],14.5 ± 3.48 nM
same,CC50,[6],> 5000 nM

# Source: article PMC7997389 (Biochemical and Biophysical Research Communications, 2021)
